The results in this text go back to ChEMBL document CHEMBL5214944, “Preparation of radiolabeled erlotinib analogues and analysis of the effect of linkers” (Bioorg Med Chem Lett, 2022).

Data set [1] is described as follows: Retention time of the compound by RP-HPLC analysis. Type of data set: physicochemical.
The test system of a further data set is A-431. Description: Cytotoxicity against human A-431 cells assessed as inhibition of cell growth at 100 uM incubated for 24 hrs by MTT assay. Type of data set: toxicity, cell-based. The following applies: a-431, 24 h.
Data set [2] can be described thus: Cytotoxicity against human A-431 cells assessed as inhibition of cell growth at 100 uM incubated for 72 hrs by MTT assay. Type of data set: toxicity, cell-based.
The nature of data set [3]: Octanol/water partition coefficient, logP of compound by gamma counter analysis. Type of data set: physicochemical.
Data set [4] in a line: Biodistribution in Swiss mouse assessed as accumulation at radioactivity in liver at 3 MBq, iv and measured 1 hr post injection by gamma counter method. Type of data set: ADME, organism-based. The following applies: in vivo.
The nature of data set [5]: Cytotoxicity against human A-431 cells assessed as inhibition of cell growth at 50 uM incubated for 24 hrs by MTT assay. Type of data set: toxicity, cell-based. The following applies: read-out: Activity.

In data set [1], `COCCOc1cc2ncnc(Nc3cccc(-c4cn(CCOCCOCCOCCOCCOCCOCCN)nn4)c3)c2cc1OCCOC` returned a Retention_time of 17.4 min.
The molecule `COCCOc1cc2ncnc(Nc3cccc(-c4cn(CCOCCOCCOCCOCCOCCOCCNC(=S)Nc5ccc(CC6CN(CC(=O)O)CCN(CC(=O)O)CCN(CC(=O)O)CCN6CC(=O)O)cc5)nn4)c3)c2cc1OCCOC` (stereo not drawn) gave a Retention_time in data set [1] of 18.5 min. Also, the Activity entry with A-431 is on record as “Toxic”. Besides, the inhibition at 72 h, 100 µM in data set [2] is 90.9%.
The corresponding values for `COCCOc1cc2ncnc(Nc3cccc(-c4cn(CCOCCOCCOCCNC(=S)Nc5ccc(CC6CN(CC(=O)O)CCN(CC(=O)O)CCN(CC(=O)O)CCN6CC(=O)O)cc5)nn4)c3)c2cc1OCCOC` (stereo not drawn) are 17.2 min, “Toxic” and 92.6%.
The corresponding values for `COCCOc1cc2ncnc(Nc3cccc(-c4cn(CCCNC(=S)Nc5ccc(CC6CN(CC(=O)O)CCN(CC(=O)O)CCN(CC(=O)O)CCN6CC(=O)O)cc5)nn4)c3)c2cc1OCCOC` (stereo not drawn) are 15.9 min, “Non-Toxic” and 91.3%.
In data set [3], `C#Cc1cccc(Nc2ncnc3cc(OCCOC)c(OCCO[11CH3])cc23)c1` yielded a logP of 3.2. Besides, the Drug uptake in data set [4] amounted to 10.55 % ID/g.
As for `COCCOc1cc2ncnc(Nc3cccc(-c4cn(CCOCCOCCOCCN)nn4)c3)c2cc1OCCOC`, the Retention_time in data set [1] came out at 15.9 min.
Still for that read-out and setting: with `COCCOc1cc2ncnc(Nc3cccc(-c4cn(CCCN)nn4)c3)c2cc1OCCOC` the figure was 13.5 min.
Molecule `COCCOc1cc2ncnc(Nc3cccc(-c4cn(CC[18F])nn4)c3)c2cc1OCCOC` registered a logP in data set [3] of 2.36. For the same molecule, the Drug uptake in data set [4] is 17.1 % ID/g.
`C#Cc1cccc(Nc2ncnc3cc(OCCOC)c(OCCOC)cc23)c1` [ERLOTINIB]: in data set [5], the inhibition at 24 h, 50 µM is 29.8%. Further, the inhibition at 72 h, 100 µM in data set [2] came out at 92.7%.
